Test results from PubChem BioAssay (NCI).
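Exposure lasted 48 hours, with cells grown in 96-well plates and compounds tested at five concentrations. GI50 is the concentration that inhibits growth by half. At the TGI there is no net growth.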

Experiments:
Test in all cases: DTP human tumour cell line panel, 48 h
[1] = system: IGROV1 ovarian
[2] = system: MDA-MB-231 breast
[3] = system: NCI-H226 lung
[4] = system: OVCAR-5 ovarian
[5] = system: SNB-75 CNS
[6] = system: COLO 205 colon
[7] = system: SK-OV-3 ovarian
[8] = system: SK-MEL-28 melanoma
[9] = system: NCI/ADR-RES ovarian
[10] = system: SF-539 CNS
[11] = system: A498 renal
[12] = system: DU-145 prostate
[13] = system: K-562 leukemia
[14] = system: OVCAR-4 ovarian
[15] = system: HT29 colon
[16] = system: BT-549 breast
[17] = system: MDA-MB-435
[18] = system: SK-MEL-2 melanoma
[19] = system: HCC-2998 colon
[20] = system: OVCAR-3 ovarian
[21] = system: HL-60(TB) leukemia
[22] = system: UO-31 renal
[23] = system: NCI-H460 lung
[24] = system: SF-268 CNS
[25] = system: LOX IMVI melanoma
[26] = system: CCRF-CEM leukemia
[27] = system: SF-295 CNS
[28] = system: OVCAR-8 ovarian
[29] = system: SW-620 colon
[30] = system: TK-10 renal
[31] = system: MOLT-4 leukemia
[32] = system: 786-0 renal
[33] = system: SNB-19 CNS
[34] = system: SN12C renal
[35] = system: KM12 colon
[36] = system: EKVX NSCLC
[37] = system: CAKI-1 renal
[38] = system: NCI-H23 lung
[39] = system: A549 NSCLC
[40] = system: RXF 393 renal
[41] = system: SR leukemia
[42] = system: UACC-62 melanoma
[43] = system: MALME-3M melanoma
[44] = system: U251 CNS
[45] = system: RPMI-8226 leukemia
[46] = system: M14 melanoma
[47] = system: ACHN renal
[48] = system: PC-3 prostate
[49] = system: HS 578T breast
[50] = system: HOP-62 NSCLC
[51] = system: HCT-116 colon
[52] = system: NCI-H522 lung
[53] = system: HOP-92 NSCLC
[54] = system: HCT-15 colon
[55] = system: SK-MEL-5 melanoma
[56] = system: MCF7 breast

SMILES: COc1ccccc1Cn1c2c(c3c(C(=O)NCCN(C)C)c(O)ccc31)C(=O)c1ccccc1C2=O
- TGI [1]: 3230 nM
- TGI [2]: 3720 nM
- TGI [3]: 51500 nM
- TGI [4]: 3620 nM
- TGI [5]: 2960 nM
- TGI [6]: 3190 nM
- TGI [7]: 43400 nM
- TGI [8]: 3150 nM
- TGI [9]: 4930 nM
- TGI [10]: 3090 nM
- TGI [11]: 41200 nM
- TGI [12]: 3310 nM
- TGI [13]: 4000 nM
- TGI [14]: 3040 nM
- TGI [15]: 3470 nM
- TGI [16]: 64700 nM
- TGI [17]: 3240 nM
- TGI [18]: 3460 nM
- TGI [19]: 3020 nM
- TGI [20]: 3360 nM
- TGI [21]: 2780 nM
- TGI [22]: 3330 nM
- TGI [23]: 4230 nM

SMILES: COc1ccc(-c2nocc2-c2cc(OC)c(OC)c(OC)c2)cc1
- GI50 [24]: 683 nM
- TGI [24]: > 85900 nM
- GI50 [1]: 346 nM
- TGI [1]: > 100000 nM
- GI50 [25]: 212 nM
- TGI [25]: > 74500 nM
- GI50 [2]: 350 nM
- TGI [2]: > 58400 nM
- GI50 [26]: 189 nM
- TGI [26]: > 100000 nM
- GI50 [3]: 14900 nM
- TGI [3]: 56100 nM
- GI50 [27]: 47.5 nM
- TGI [27]: 16900 nM
- GI50 [4]: 1380 nM
- TGI [4]: > 100000 nM
- GI50 [28]: 228 nM
- TGI [28]: > 100000 nM
- GI50 [29]: 46.6 nM
- TGI [29]: > 100000 nM
- GI50 [5]: 75.1 nM
- TGI [5]: > 100000 nM
- GI50 [6]: 53.1 nM
- TGI [6]: 1240 nM
- GI50 [30]: 930 nM
- TGI [30]: 62700 nM
- GI50 [7]: 142 nM
- TGI [7]: > 82800 nM
- GI50 [31]: 300 nM
- TGI [31]: > 100000 nM
- GI50 [8]: 6900 nM
- TGI [8]: > 89900 nM
- GI50 [32]: 109 nM
- TGI [32]: 31600 nM
- GI50 [33]: 175 nM
- TGI [33]: > 100000 nM
- GI50 [34]: 942 nM
- TGI [34]: > 96200 nM
- GI50 [9]: 49.2 nM
- TGI [9]: > 61000 nM
- GI50 [35]: 38.6 nM
- TGI [35]: 14100 nM
- GI50 [36]: 121 nM
- TGI [36]: > 100000 nM
- GI50 [37]: 236 nM
- TGI [37]: > 100000 nM
- GI50 [38]: 445 nM
- TGI [38]: > 86500 nM
- GI50 [10]: 132 nM
- TGI [10]: 20700 nM
- GI50 [39]: 90.7 nM
- TGI [39]: > 100000 nM
- GI50 [11]: 44.1 nM
- TGI [11]: 2900 nM
- GI50 [12]: 286 nM
- TGI [12]: > 100000 nM
- GI50 [40]: 140 nM
- TGI [40]: 797 nM
- GI50 [13]: 42.6 nM
- TGI [13]: > 100000 nM
- GI50 [41]: 49.7 nM
- TGI [41]: > 76300 nM
- GI50 [42]: 48.9 nM
- TGI [42]: 18900 nM
- GI50 [43]: 21600 nM
- TGI [43]: 60700 nM
- GI50 [44]: 79.3 nM
- TGI [44]: > 81100 nM
- GI50 [45]: 348 nM
- TGI [45]: 30900 nM
- GI50 [46]: 54 nM
- TGI [46]: 5820 nM
- GI50 [14]: 2210 nM
- TGI [14]: > 100000 nM
- GI50 [47]: 1530 nM
- TGI [47]: > 70300 nM
- GI50 [48]: 53.6 nM
- TGI [48]: 37600 nM
- GI50 [15]: 37.9 nM
- TGI [15]: 4760 nM
- GI50 [49]: 216 nM
- TGI [49]: > 100000 nM
- GI50 [16]: 112 nM
- TGI [16]: 19500 nM
- GI50 [17]: 23.9 nM
- TGI [17]: 130 nM
- GI50 [50]: 138 nM
- TGI [50]: > 100000 nM
- GI50 [51]: 41.2 nM
- TGI [51]: 13100 nM
- GI50 [18]: 66.4 nM
- TGI [18]: 69200 nM
- GI50 [52]: 32.3 nM
- TGI [52]: 499 nM
- GI50 [19]: 358 nM
- TGI [19]: 28000 nM
- GI50 [53]: 2020 nM
- TGI [53]: 59000 nM
- GI50 [54]: 44.7 nM
- TGI [54]: > 100000 nM
- GI50 [55]: 73.6 nM
- TGI [55]: 4450 nM
- GI50 [20]: 36.4 nM
- TGI [20]: 474 nM
- GI50 [56]: 38.7 nM
- TGI [56]: > 100000 nM
- GI50 [21]: 38.7 nM
- TGI [21]: 886 nM
- GI50 [22]: 540 nM
- TGI [22]: 29000 nM
- GI50 [23]: 48 nM
- TGI [23]: 15500 nM
